Data: article PMC3156385 (Chemical research in toxicology, 2011)
Where two headings read alike, the source gives them in different places.

Tests used:
P450 1B1 [1] = target: T1, P450 1B1 (Homo sapiens, UniProt Q16678); assay: Spectral binding titration with purified recombinant P450 1B1; settings: for ΔAmax/Ks / ΔAmax: Reverse Type I binding, 1 µM P450; for ΔAmax: means ± SE
T1 sequence (Q16678 1-543): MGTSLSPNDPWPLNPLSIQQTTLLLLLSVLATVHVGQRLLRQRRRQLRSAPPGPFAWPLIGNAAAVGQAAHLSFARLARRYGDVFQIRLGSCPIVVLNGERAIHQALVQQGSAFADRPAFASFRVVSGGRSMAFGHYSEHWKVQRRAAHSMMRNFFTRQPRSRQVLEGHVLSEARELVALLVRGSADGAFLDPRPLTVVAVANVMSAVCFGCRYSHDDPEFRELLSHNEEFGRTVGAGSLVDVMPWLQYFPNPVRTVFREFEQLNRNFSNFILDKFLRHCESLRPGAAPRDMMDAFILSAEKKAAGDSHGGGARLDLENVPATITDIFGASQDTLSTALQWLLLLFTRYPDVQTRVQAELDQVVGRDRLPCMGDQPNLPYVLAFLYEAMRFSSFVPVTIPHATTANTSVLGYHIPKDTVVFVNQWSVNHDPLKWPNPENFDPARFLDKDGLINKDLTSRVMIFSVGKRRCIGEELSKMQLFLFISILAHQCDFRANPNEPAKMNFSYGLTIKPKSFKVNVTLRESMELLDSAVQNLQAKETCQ

P450 2A13 [2] = target: T2, P450 2A13 (Homo sapiens, UniProt Q16696); assay: Inhibition of P450 2A13-dependent coumarin 7-hydroxylation; format: biochemical
T2 sequence (Q16696 1-494): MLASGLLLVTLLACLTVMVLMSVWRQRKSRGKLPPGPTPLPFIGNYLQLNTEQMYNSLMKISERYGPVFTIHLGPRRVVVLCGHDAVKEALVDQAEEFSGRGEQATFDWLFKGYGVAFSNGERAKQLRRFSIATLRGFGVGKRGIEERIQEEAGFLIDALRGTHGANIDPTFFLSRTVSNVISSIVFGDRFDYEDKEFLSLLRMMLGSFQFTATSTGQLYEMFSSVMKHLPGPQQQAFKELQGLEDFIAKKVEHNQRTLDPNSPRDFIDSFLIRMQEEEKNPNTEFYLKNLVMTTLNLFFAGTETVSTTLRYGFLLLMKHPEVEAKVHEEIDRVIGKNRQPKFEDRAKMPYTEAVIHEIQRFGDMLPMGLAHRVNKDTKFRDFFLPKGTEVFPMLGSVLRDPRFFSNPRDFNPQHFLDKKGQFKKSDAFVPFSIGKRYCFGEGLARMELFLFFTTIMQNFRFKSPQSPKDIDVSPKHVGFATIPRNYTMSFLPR

P450 1A2 = target: T3, P450 1A2 (Homo sapiens, UniProt P05177); assay: Spectral binding titration with purified recombinant P450 1A2; settings: for ΔAmax/Ks / ΔAmax: Reverse Type I binding, 1 µM P450; for ΔAmax: means ± SE
T3 sequence (P05177 1-516): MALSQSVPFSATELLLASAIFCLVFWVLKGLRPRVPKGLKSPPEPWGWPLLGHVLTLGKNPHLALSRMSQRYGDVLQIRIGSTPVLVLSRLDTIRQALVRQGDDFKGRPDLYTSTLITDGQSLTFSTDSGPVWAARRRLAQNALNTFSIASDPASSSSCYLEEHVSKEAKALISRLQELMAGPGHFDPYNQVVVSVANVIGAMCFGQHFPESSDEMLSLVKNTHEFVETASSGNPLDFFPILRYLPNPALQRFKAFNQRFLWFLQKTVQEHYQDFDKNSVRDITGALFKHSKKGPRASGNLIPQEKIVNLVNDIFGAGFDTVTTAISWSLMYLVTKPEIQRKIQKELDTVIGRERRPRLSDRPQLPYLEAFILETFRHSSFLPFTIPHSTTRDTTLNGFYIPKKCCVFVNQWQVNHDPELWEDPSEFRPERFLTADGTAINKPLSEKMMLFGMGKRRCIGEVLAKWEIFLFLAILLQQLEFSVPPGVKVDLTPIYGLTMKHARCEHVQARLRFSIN

P450 2A13 [3] = assay: Spectral binding titration with purified recombinant P450 2A13; settings: Ks P450 2A6 / Ks P450 2A13
P450 2A13 [4] = target: T2, P450 2A13; assay: as above; settings: for ΔAmax/Ks / ΔAmax: Type I binding; for ΔAmax: means ± SE
P450 2A6 [5] = target: T4, P450 2A6 (Homo sapiens, UniProt P11509); format: biochemical
T4 sequence (P11509 1-494): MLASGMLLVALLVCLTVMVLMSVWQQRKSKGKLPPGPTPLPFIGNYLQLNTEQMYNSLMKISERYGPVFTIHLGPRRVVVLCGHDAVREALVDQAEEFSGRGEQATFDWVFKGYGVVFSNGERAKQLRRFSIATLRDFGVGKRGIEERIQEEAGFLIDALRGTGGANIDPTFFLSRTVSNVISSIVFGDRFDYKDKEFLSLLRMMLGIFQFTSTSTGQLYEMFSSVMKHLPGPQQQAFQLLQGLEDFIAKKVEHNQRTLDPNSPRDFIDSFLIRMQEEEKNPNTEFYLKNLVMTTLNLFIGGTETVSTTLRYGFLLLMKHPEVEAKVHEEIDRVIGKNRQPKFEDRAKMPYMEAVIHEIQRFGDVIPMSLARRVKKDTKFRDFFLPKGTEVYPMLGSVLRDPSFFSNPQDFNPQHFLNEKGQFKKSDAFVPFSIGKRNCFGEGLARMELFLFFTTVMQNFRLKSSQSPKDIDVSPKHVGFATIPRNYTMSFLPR

P450 2A6 [6] = target: T4, P450 2A6; assay: Spectral binding titration with purified recombinant P450 2A6; settings: for ΔAmax/Ks / ΔAmax: Type I binding, 1 µM P450; for ΔAmax: means ± SE
P450 1B1 [7] = target: T1, P450 1B1; assay: Inhibition of P450 1B1-dependent EROD activity; format: biochemical
P450 2A13 [8] = target: T2, P450 2A13; format: biochemical
P450 2A6 [9] = target: T4, P450 2A6; assay: Inhibition of P450 2A6-dependent coumarin 7-hydroxylation; format: biochemical
[10] = preincubation 15 min with NADPH vs without

Row | SMILES | Kd (P450 1B1 [1]) [nM] | ΔAmax/Ks (P450 1B1 [1]) | ΔAmax (P450 1B1 [1]) | IC50 (P450 2A13 [2]) [nM] | Kd (P450 1A2) [nM] | ΔAmax/Ks (P450 1A2) | ΔAmax (P450 1A2) | Ks of P450 2A13 lower than with P450 2A6 (P450 2A13 [3]) [fold] | Kd (P450 2A13 [4]) [nM] | ΔAmax/Ks (P450 2A13 [4]; 1 µM P450) | ΔAmax (P450 2A13 [4]; 1 µM P450) | Kd (P450 2A6 [6]) [nM] | ΔAmax/Ks (P450 2A6 [6]) | ΔAmax (P450 2A6 [6]) | IC50 (P450 2A6 [9]) [nM] | further results
1 | N#C[Se]Cc1cccc(C[Se]C#N)c1 [m-XSC, 1,3-phenylenebis(methylene)selenocyanate] | 5700 ± 1000 | 3.70 × 10^−3 | 21 ± 1.0 × 10^−3 | 220 ± 31 | 13000 ± 1900 | 0.46 × 10^−3 | 5.8 ± 0.25 × 10^−3 | 28 | 200 ± 15 | 395.00 × 10^−3 | 79 ± 0.91 × 10^−3 | 5700 ± 520 | 6.50 × 10^−3 | 37 ± 0.88 × 10^−3 | 2400 ± 190 | type of binding spectra (P450 1B1 [1]; difference spectra): Reverse Type I; ΔAmax/Ks (P450 2A13 [4]; as printed in text without ×10^−3): 0.40; effect of preincubation on inhibition potency of coumarin 7-hydroxylation (P450 2A6 [5]; [10]): did not change the inhibition potencies; coumarin 7-hydroxylation, % of control (P450 2A6 [5]; with preincubation 15 min with NADPH, 1.0 µM coumarin, BSC 4.3 µM, m-XSC 0.68 µM): 48 % of control; coumarin 7-hydroxylation, % of control (P450 2A6 [5]; without preincubation, 1.0 µM coumarin, BSC 4.3 µM, m-XSC 0.68 µM): 48 % of control; coumarin 7-hydroxylation (P450 2A6 [5]; without preincubation, 1.0 µM coumarin, BSC 4.3 µM, m-XSC 0.68 µM, control 3.26): 1.56 nmol/min/nmol P450; metabolism-dependent inhibition of P450 1B1 (EROD) (P450 1B1 [7]; m-XSC 0.033, 0.083, 0.33 µM, preincubation 2 and 4 min with NADPH): no metabolism-dependent inhibition; effect of preincubation on inhibition potency of coumarin 7-hydroxylation (P450 2A13 [8]; [10]): did not change the inhibition potencies; coumarin 7-hydroxylation, % of control (P450 2A13 [8]; with preincubation 15 min with NADPH, 1.0 µM coumarin, BSC 1.2 µM, m-XSC 0.22 µM): 54 % of control; coumarin 7-hydroxylation, % of control (P450 2A13 [8]; without preincubation, 1.0 µM coumarin, BSC 1.2 µM, m-XSC 0.22 µM): 56 % of control; coumarin 7-hydroxylation (P450 2A13 [8]; without preincubation, 1.0 µM coumarin, BSC 1.2 µM, m-XSC 0.22 µM, control 1.04): 0.59 nmol/min/nmol P450
2 | N#C[Se]Cc1ccccc1 [BSC, benzyl selenocyanate] | 5300 ± 960 | 3.60 × 10^−3 | 19 ± 0.11 × 10^−3 | 1200 ± 190 | 11000 ± 2300 | 0.88 × 10^−3 | 9.5 ± 0.57 × 10^−3 | 10 | 200 ± 21 | 470.00 × 10^−3 | 94 ± 1.5 × 10^−3 | 2000 ± 140 | 32.00 × 10^−3 | 66 ± 0.93 × 10^−3 | 4300 ± 360 | type of binding spectra (P450 2A13 [4]; difference spectra): Type I; effect of preincubation on inhibition potency of coumarin 7-hydroxylation (P450 2A6 [5]): did not change the inhibition potencies; type of binding spectra (P450 2A6 [6]; difference spectra): Type I; IC50 (P450 1B1 [7]): 270 ± 31 nM; effect of preincubation on inhibition potency of coumarin 7-hydroxylation (P450 2A13 [8]): did not change the inhibition potencies
